Experimental findings from patent publication US9868720B2 (Genentech, Inc., priority 2013, dated 2018) are described below.

Structures are written as SMILES.

For the experiment, the system named is phosphorylation of JNK in HEK293 cells stably transfected with doxycycline-inducible Flag-tagged full length DLK. The experiment in a line: pJNK Cell based assay. The following applies: Homo sapiens; HEK293 cells with doxycycline-induced DLK, 5.5 hours compound treatment, pJNK mean intensity by imaging; read-out: p-JNK 293 IC50. The procedure:
pJNK Cell based assay:HEK293 cells stably transfected with doxycycline-inducible N-terminally Flag-tagged full length DLK were plated at density of 7500 cells/well (40 μL) in 384-well Greiner bio-one μclear plate coated with Poly-D-Lysine. The cells were incubated at 37° C. in DMEM (Dulbecco's Modified Eagle Medium) media containing 10% FBS and 2 mM L-Glutamine for 20-24 hours. 5 μL of 60 μM doxycycline was added to the cells to initiate DLK expression for 20 hours at 37° C. No doxycycline was added for the negative control wells. 5 μL of compounds of formula I in various concentrations in DMEM were added to the cells and the compound treated cell culture was incubated at 37° C. for 5.5 hours prior to fixation with addition of 50 μL 4% paraformaldehyde. The wells were washed with 40 μL PBS wash twice followed by permeabilization with 0.1% Triton X-100. The cells were washed with 40 μL PBS wash twice again prior to incubation in 20 μL SuperBlock (Thermo Scientific) for 1 hour at ambient temperature. The primary antibodies (1:3000 mouse anti-Flag and 1:1000 rabbit anti-pJNK in SuperBlock) were incubated with the fixed cells overnight at 4° C. The cells were washed with 40 μL PBS twice before the addition of secondary antibodies (Anti-mouse labeled with AlexaFluor555 and anti-rabbit labeled with AlexaFluor488 in 1:2000 dilution in SuperBlock). The secondary antibodies were incubated at ambient temperature for 2 hours and were protected from light. The cells were washed with 40 μL PBS before the addition of 20 μL Hoechst 33342 (1:5000 in PBS). The plate was sealed and stored at 4° C. in the dark until imaging analyses on Opera High Content Screening System (Evotec). Three data points were reported: pJNK (mean intensity inside the search stencil), DLK (mean intensity of the 1% brightest pixels inside the search stencil) and nuclear area.
For the molecule `Cc1nccc(C2CCN(c3nc(Nc4cc(C(F)(F)F)ccn4)cc(C4CCOCC4)n3)C2)n1` (stereo not drawn) [[2-[3-(2-Methyl-pyrimidin-4-yl)-pyrrolidin-1-yl]-6-(tetrahydro-pyran-4-yl)-pyrimidin-4-yl]-(4-trifluoromethyl-pyridin-2-yl)-amine], the IC50 (usually the concentration that inhibits the measured activity by half) came out at 227 nM.

As to `FC(F)(F)c1ccnc(Nc2cc(C3CCOCC3)nc(N3CCc4nc[nH]c4C3)n2)c1` [[2-(3,4,6,7-Tetrahydro-imidazo[4,5-c]pyridin-5-yl)-6-(tetrahydro-pyran-4-yl)-pyrimidin-4-yl]-(4-trifluoromethyl-pyridin-2-yl)-amine], the half-inhibitory concentration (IC50) stood at 240 nM.

Regarding `Cc1ccnc(Nc2cc(C3CCCN(C(=O)c4ccccc4)C3)nc(N3CCCC3)n2)c1` (stereo not drawn) [{3-[6-(4-Methyl-pyridin-2-ylamino)-2-pyrrolidin-1-yl-pyrimidin-4-yl]-piperidin-1-yl}-phenyl-methanone], the concentration for half-maximal inhibition (IC50) was found to be 77.9 nM.

Regarding `FC1(F)CCN(c2nc(Nc3cc(Cl)ccn3)cc(C3CCNCC3)n2)C1` [(4-Chloro-pyridin-2-yl)-[2-(3,3-difluoro-pyrrolidin-1-yl)-6-piperidin-4-yl-pyrimidin-4-yl]-amine], the IC50 came to 113 nM.

For the molecule `FC1(F)CCN(c2nc(Nc3cc(C4CCC4)ccn3)cc(C3CCNCC3)n2)C1` [(4-Cyclobutyl-pyridin-2-yl)-[2-(3,3-difluoro-pyrrolidin-1-yl)-6-piperidin-4-yl-pyrimidin-4-yl]-amine], the IC50 worked out at 200 nM.

`CN(CCO)c1nc(Nc2cc(C(F)(F)F)ccn2)cc(C2CCNC2)n1` (stereo not drawn) [2-{Methyl-[4-pyrrolidin-3-yl-6-(4-trifluoromethyl-pyridin-2-ylamino)-pyrimidin-2-yl]-amino}-ethanol]: the IC50 is 193 nM.

For `Cc1c[nH]c(CN2CCC(c3cc(Nc4cc(C(F)(F)F)ccn4)nc(N4CC(F)(F)C4)n3)C2)n1` (stereo not drawn) [{2-(3,3-Difluoro-azetidin-1-yl)-6-[1-(4-methyl-1H-imidazol-2-ylmethyl)-pyrrolidin-3-yl]-pyrimidin-4-yl}-(4-trifluoromethyl-pyridin-2-yl)-amine], the IC50 was 418 nM.

Turning to `N#CC1(C(=O)N2CCC(c3cc(Nc4cc(C(F)(F)F)ccn4)nc(N4CCC(F)(F)C4)n3)C2)CC1` (stereo not drawn) [1-{3-[2-(3,3-Difluoro-pyrrolidin-1-yl)-6-(4-trifluoromethyl-pyridin-2-ylamino)-pyrimidin-4-yl]-pyrrolidine-1-carbonyl}-cyclopropanecarbonitrile], the IC50 was determined as 584 nM.

`FC(F)(F)c1ccnc(Nc2cc(C3CCCNC3)nc(-c3ccccc3)n2)c1` (stereo not drawn) [(2-Phenyl-6-piperidin-3-yl-pyrimidin-4-yl)-(4-trifluoromethyl-pyridin-2-yl)-amine]: the 50% inhibitory concentration (IC50) came to 1000 nM.

For the molecule `FC(F)(F)c1ccnc(Nc2cc(C3CCOCC3)nc(N3CC4CC3CO4)n2)c1` (stereo not drawn) [[2-(2-Oxa-5-aza-bicyclo[2.2.1]hept-5-yl)-6-(tetrahydro-pyran-4-yl)-pyrimidin-4-yl]-(4-trifluoromethyl-pyridin-2-yl)-amine], the 50% inhibitory concentration (IC50) stood at 268 nM.

Take `FC(F)(F)c1ccnc(Nc2cc(C3CCNCC3)nc(N3CC4CC3CO4)n2)c1` (stereo not drawn) [[2-(2-Oxa-5-aza-bicyclo[2.2.1]hept-5-yl)-6-piperidin-4-yl-pyrimidin-4-yl]-(4-trifluoromethyl-pyridin-2-yl)-amine]: the IC50 was 389 nM.

Take `CC(=O)N1CCC(C#N)(c2cc(Nc3cc(C(F)(F)F)ccn3)nc(N3CCC(F)(F)C3)n2)CC1` [1-Acetyl-4-[2-(3,3-difluoro-pyrrolidin-1-yl)-6-(4-trifluoromethyl-pyridin-2-ylamino)-pyrimidin-4-yl]-piperidine-4-carbonitrile]: the IC50 was found to be 605 nM.
